According to US4728736A, “Carbocyclic analogs of purine ribofuranosides” (priority 1984, dated 1988):
≈ marks a conversion by molar mass, not a printed value.

Tests used:
[1] = system: herpes simplex virus, type 1 (strain HF); assay: Antiviral activity (virus rating); […]; format: cell-based; settings: H.Ep. 2 cells; for EC50: Human alphaherpesvirus 1, HEp-2, strain HF, read-out: MIC50, Herpes Simplex Type 1; for Virus Rating (VR), Herpes Simplex Type 1: VR 0.5-0.9 marginal to moderate, VR >= 1 definite activity
[2] = system: herpes simplex virus, type 1 (strain 377); assay: Antiviral activity (virus rating); […]; format: cell-based; settings: strain 377, Vero cells; for Virus Rating (VR), Herpes Simplex Type 1: VR 0.5-0.9 marginal to moderate, VR >= 1 definite activity; for EC50: Human alphaherpesvirus 1, 50% inhibition of virus-induced cytopathogenic effects, read-out: MIC50, Herpes Simplex Type 1
[3] = system: vaccinia virus (Lederle Chorioallantoic strain); assay: microbe, parasite or virus in culture; format: cell-based; settings: for Virus Rating (VR), Vaccinia Virus: Lederle Chorioallantoic strain, H.Ep. 2 cells, VR 0.5-0.9 marginal to moderate, VR >= 1 definite activity; for EC50: Orthopoxvirus vaccinia, HEp-2, read-out: MIC50, Vaccinia Virus
[4] = system: herpes simplex virus, type 1, and vaccinia virus; format: cell-based, type 1; vaccinia virus; settings: cell culture
[5] = 50% inhibition of virus-induced cytopathogenic effects

Q: Nc1nc(N)c2nnn([C@@H]3C[C@H](CO)[C@@H](O)[C@H]3O)c2n1 (relative stereo) [Example 6, (1α,2α,3β,5β)-3-(5,7-Diamino-3H-1,2,3-triazolo[4,5-d]pyrimidin-3-yl)-5-(hydroxymethyl)-1,2-cyclopentanediol] was tested. Which EC50 [1, 5] did it give?
A: 100 µg/mL (≈ 356 µM)

Q: And the “Virus Rating (VR), Herpes Simplex Type 1” value ([1]; strain HF)?
A: 1.4

Q: And the “Virus Rating (VR), Herpes Simplex Type 1” value [2]?
A: 0.6

Q: Which results are given for CNc1nc(N)nc2c1ncn2[C@@H]1C[C@H](CO)[C@@H](O)[C@H]1O (relative stereo) [Example 3, (1α,2α,3β,5β)-3-[2-Amino-6-(methylamino)-9H-purin-9-yl]-5-(hydroxymethyl)-1,2-cyclopentanediol]?
A: EC50 [1, 5]: 320 µg/mL (≈ 1090 µM); Virus Rating (VR), Herpes Simplex Type 1 ([1]; strain HF): 1.3

Q: Nc1nc(Cl)c2nnn([C@@H]3C[C@H](CO)[C@@H](O)[C@H]3O)c2n1 (relative stereo) [Formula III, X = Cl, carbocyclic analog of 2-amino-6-chloro-8-azapurine ribofuranoside] was tested. Which EC50 [1, 5] did it give?
A: 81 µg/mL

Q: What about the “Virus Rating (VR), Herpes Simplex Type 1” value ([1]; strain HF) of the same molecule?
A: 0.9

Q: What about the “Virus Rating (VR), Vaccinia Virus” value [3] of the same molecule?
A: 0.6

Q: Nc1nc(N)c2ncn([C@@H]3C[C@H](CO)[C@@H](O)[C@H]3O)c2n1 (relative stereo) [Example 2, (1α,2α,3β,5β)-3-(2,6-Diamino-9H-purin-9-yl)-5-(hydroxymethyl)-1,2-cyclopentanediol] was tested. Which EC50 [1, 5] did it give?
A: 0.32 µg/mL (≈ 1.14 µM)

Q: What about the “MIC50, Herpes Simplex Type 1” value ([1]; strain HF, 50% inhibition of virus-induced cytopathogenic effects) of the same molecule?
A: 0.3 µg/mL (≈ 1.07 µM)

Q: What about the “Virus Rating (VR), Herpes Simplex Type 1” value ([1]; strain HF) of the same molecule?
A: 4.6

Q: And the EC50 [2]?
A: 197 µg/mL (≈ 703 µM)

Q: And the “Virus Rating (VR), Herpes Simplex Type 1” value [2]?
A: 2.2

Q: What about the “inhibiting replication of vaccinia virus (in words)” value [3] of the same molecule?
A: highly active

Q: What about the “Virus Rating (VR), Vaccinia Virus” value [3] of the same molecule?
A: 3.8

Q: And the EC50 [3]?
A: 2.3 µg/mL (≈ 8.21 µM)

Q: And the “antiviral activity (in words)” value [4]?
A: very high activity

Q: What does the source list for Nc1nc(Cl)c2ncn([C@@H]3C[C@H](CO)[C@@H](O)[C@H]3O)c2n1 (relative stereo) [Example 1, (1α,2α,3β,5β)-3-(2-Amino-6-chloro-9HH-purin-9-yl)-5-(hydroxymethyl)-1,2-cyclopentanediol]?
A: EC50 [1, 5]: 10 µg/mL (≈ 33.4 µM); Virus Rating (VR), Herpes Simplex Type 1 ([1]; strain HF): 1.7; Virus Rating (VR), Vaccinia Virus [3]: 1.2; EC50 [3]: 20 µg/mL (≈ 66.7 µM)

Q: Which results are given for Nc1ncnc2c1ncn2[C@@H]1O[C@H](CO)[C@@H](O)[C@@H]1O [Ara-A, reference compound]?
A: EC50 [1, 5]: 2.5 to 10 µg/mL (≈ 9.35 to 37.4 µM); Virus Rating (VR), Herpes Simplex Type 1 ([1]; strain HF): 2.0-2.2

Q: What does the source list for Nc1nc2c(nnn2[C@@H]2C[C@H](CO)[C@@H](O)[C@H]2O)c(=O)[nH]1 (relative stereo) [Formula IV, Y = O, carbocyclic analog of 8-azaguanosine]?
A: EC50 [2]: 58 µg/mL; Virus Rating (VR), Herpes Simplex Type 1 [2]: 2.2
